Experimental data: PMC12777568 (Antimicrobial Agents and Chemotherapy, 2025)
Where two headings read alike, the source gives them in different places.

How the values were obtained:
[1] = BIC plasma pharmacokinetics, Phase 1 open-label single-dose DDI study GS-US-380-3909 (B/F/TAF 50/200/25 mg with antacid or mineral supplements); assay type: in vivo, human; details: both sexes, human, plasma, oral; for AUC(0-t): BIC plasma AUClast; for Tmax: BIC plasma Tmax, median (Q1, Q3)
Protocol: Eligible participants were adult (18–45 years) males and non-pregnant, non-lactating females in good general health at a screening evaluation performed no more than 28 days before the first study dose. […] Full eligibility criteria are available in the supplement. All prescription and over-the-counter medications except vitamins, acetaminophen, ibuprofen, and hormonal contraceptives were not permitted during study participation. Three dosing cohorts were evaluated (Table 1). […] Vitamins and/or other supplements were not permitted on the dosing day. […] Participants received maximum-strength antacid oral suspension (four teaspoons; 20 mL; 1,600 mg aluminum hydroxide/1,600 mg magnesium hydroxide/160 mg simethicone; referred to as “aluminum/magnesium-containing antacid”) on Day 9, calcium carbonate (1,200 mg; 2 × 600 mg tablets) on Day 17, and ferrous fumarate (1 × 324 mg tablet) on Day 25. […] All samples were analyzed within the timeframe determined using frozen stability storage data. […] PK parameters were estimated using Phoenix WinNonlin software (Version 6.4, Pharsight Corporation, Princeton, NJ, USA) using standard noncompartmental analysis methods. […] The estimated 90% CIs were compared to a prespecified lack of DDI boundary of 70%–143%. […] A minimum of 12 evaluable participants in each cohort was calculated to be needed to reject the null hypothesis (i.e., the 90% CI for the GLSM ratio for each PK parameter was outside the prespecified boundary) with ≥90% power.

[2] = system: HIV-1 integrase-DNA complexes; details: cited from earlier work
[3] = parameters: method as in earlier work; details: cited from earlier work

O=C(NCc1c(F)cc(F)cc1F)c1cn2c(c(O)c1=O)C(=O)N1[C@H]3CC[C@H](C3)O[C@@H]1C2 [BIC, bictegravir]
AUC(0-inf) ([1]; BIC plasma AUCinf, mean (%CV), Cohort 3, B/F/TAF alone (fasted), N = 14): 93700 ng·h/mL
AUC(0-inf) ([1]; BIC plasma AUCinf, mean (%CV), Cohort 3 fed, B/F/TAF + aluminum/magnesium-containing antacid simultaneous, N = 14): 50800 ng·h/mL
AUC(0-inf) ([1]; BIC plasma AUCinf, mean (%CV), Cohort 3 fed, B/F/TAF + calcium carbonate simultaneous, N = 14): 94800 ng·h/mL
AUC(0-inf) ([1]; BIC plasma AUCinf, mean (%CV), Cohort 3 fed, B/F/TAF + ferrous fumarate simultaneous, N = 14): 77300 ng·h/mL
AUC(0-t) ([1]; mean (%CV), Cohort 1 fasted, B/F/TAF + aluminum/magnesium-containing antacid simultaneous, N = 14): 26200 ng·h/mL
AUC(0-t) ([1]; mean (%CV), Cohort 1 fasted, B/F/TAF + calcium carbonate simultaneous, N = 14): 80400 ng·h/mL
AUC(0-t) ([1]; mean (%CV), Cohort 1 fasted, B/F/TAF + ferrous fumarate simultaneous, N = 14): 43400 ng·h/mL
AUC(0-t) ([1]; mean (%CV), Cohort 1 fasted, B/F/TAF alone, N = 14): 117000 ng·h/mL
AUC(0-t) ([1]; mean (%CV), Cohort 2 fasted, B/F/TAF 2 hours after aluminum/magnesium-containing antacid, N = 13): 63400 ng·h/mL
AUC(0-t) ([1]; mean (%CV), Cohort 2 fasted, B/F/TAF 2 hours before aluminum/magnesium-containing antacid, N = 13): 111000 ng·h/mL
AUC(0-t) ([1]; mean (%CV), Cohort 2 fasted, B/F/TAF alone, N = 14): 125000 ng·h/mL
AUC(0-t) ([1]; mean (%CV), Cohort 3, B/F/TAF alone (fasted), N = 14): 91200 ng·h/mL
AUC(0-t) ([1]; mean (%CV), Cohort 3 fed, B/F/TAF + aluminum/magnesium-containing antacid simultaneous, N = 14): 49200 ng·h/mL
AUC(0-t) ([1]; mean (%CV), Cohort 3 fed, B/F/TAF + calcium carbonate simultaneous, N = 14): 91500 ng·h/mL
AUC(0-t) ([1]; mean (%CV), Cohort 3 fed, B/F/TAF + ferrous fumarate simultaneous, N = 14): 74500 ng·h/mL
concentration at 24 h ([1]; BIC plasma C24, mean (%CV), Cohort 1 fasted, B/F/TAF + aluminum/magnesium-containing antacid simultaneous, N = 14): 430 ng/mL
concentration at 24 h ([1]; BIC plasma C24, mean (%CV), Cohort 1 fasted, B/F/TAF + calcium carbonate simultaneous, N = 14): 1220 ng/mL
concentration at 24 h ([1]; BIC plasma C24, mean (%CV), Cohort 1 fasted, B/F/TAF + ferrous fumarate simultaneous, N = 14): 670 ng/mL
concentration at 24 h ([1]; BIC plasma C24, mean (%CV), Cohort 1 fasted, B/F/TAF alone, N = 14): 1800 ng/mL
concentration at 24 h ([1]; BIC plasma C24, mean (%CV), Cohort 2 fasted, B/F/TAF 2 hours after aluminum/magnesium-containing antacid, N = 13): 990 ng/mL
concentration at 24 h ([1]; BIC plasma C24, mean (%CV), Cohort 2 fasted, B/F/TAF 2 hours before aluminum/magnesium-containing antacid, N = 13): 1700 ng/mL
concentration at 24 h ([1]; BIC plasma C24, mean (%CV), Cohort 2 fasted, B/F/TAF alone, N = 14): 2010 ng/mL
concentration at 24 h ([1]; BIC plasma C24, mean (%CV), Cohort 3, B/F/TAF alone (fasted), N = 14): 1410 ng/mL
concentration at 24 h ([1]; BIC plasma C24, mean (%CV), Cohort 3 fed, B/F/TAF + aluminum/magnesium-containing antacid simultaneous, N = 14): 800 ng/mL
concentration at 24 h ([1]; BIC plasma C24, mean (%CV), Cohort 3 fed, B/F/TAF + calcium carbonate simultaneous, N = 14): 1460 ng/mL
concentration at 24 h ([1]; BIC plasma C24, mean (%CV), Cohort 3 fed, B/F/TAF + ferrous fumarate simultaneous, N = 14): 1230 ng/mL
Cmax ([1]; BIC plasma Cmax, mean (%CV), Cohort 1 fasted, B/F/TAF + aluminum/magnesium-containing antacid simultaneous, N = 14): 1200 ng/mL
Cmax ([1]; BIC plasma Cmax, mean (%CV), Cohort 1 fasted, B/F/TAF + ferrous fumarate simultaneous, N = 14): 1670 ng/mL
Cmax ([1]; BIC plasma Cmax, mean (%CV), Cohort 2 fasted, B/F/TAF 2 hours after aluminum/magnesium-containing antacid, N = 13): 2740 ng/mL
Cmax ([1]; BIC plasma Cmax, mean (%CV), Cohort 3 fed, B/F/TAF + aluminum/magnesium-containing antacid simultaneous, N = 14): 2450 ng/mL
Cmax ([1]; BIC plasma Cmax, mean (%CV), Cohort 3 fed, B/F/TAF + calcium carbonate simultaneous, N = 14): 4110 ng/mL
Tmax ([1]; Cohort 1 fasted, B/F/TAF + ferrous fumarate simultaneous, N = 14): 3.5 h
Tmax ([1]; Cohort 3 fed, B/F/TAF + aluminum/magnesium-containing antacid simultaneous, N = 14): 3.5 h
Tmax ([1]; Cohort 3 fed, B/F/TAF + calcium carbonate simultaneous, N = 14): 3.5 h
Tmax ([1]; Cohort 3 fed, B/F/TAF + ferrous fumarate simultaneous, N = 14): 4 h
AUC(0-inf) ([1]; Cohort 1 fasted, B/F/TAF with aluminum/magnesium-containing antacid simultaneous, N = 14, read-out: AUCinf, test GLSM): 25200 ng·h/mL
concentration at 24 h ([1]; Cohort 1 fasted, B/F/TAF with aluminum/magnesium-containing antacid simultaneous, N = 14, read-out: C24, test GLSM): 380 ng/mL
Cmax ([1]; Cohort 1 fasted, B/F/TAF with aluminum/magnesium-containing antacid simultaneous, N = 14, read-out: Cmax, test GLSM): 1100 ng/mL
AUC(0-inf) ([1]; Cohort 1 fasted, B/F/TAF with calcium carbonate simultaneous, N = 14, read-out: AUCinf, test GLSM): 79100 ng·h/mL
concentration at 24 h ([1]; Cohort 1 fasted, B/F/TAF with calcium carbonate simultaneous, N = 14, read-out: C24, test GLSM): 1130 ng/mL
Cmax ([1]; Cohort 1 fasted, B/F/TAF with calcium carbonate simultaneous, N = 14, read-out: Cmax, test GLSM): 3230 ng/mL
AUC(0-inf) ([1]; Cohort 1 fasted, B/F/TAF with ferrous fumarate simultaneous, N = 14, read-out: AUCinf, test GLSM): 44000 ng·h/mL
concentration at 24 h ([1]; Cohort 1 fasted, B/F/TAF with ferrous fumarate simultaneous, N = 14, read-out: C24, test GLSM): 640 ng/mL
Cmax ([1]; Cohort 1 fasted, B/F/TAF with ferrous fumarate simultaneous, N = 14, read-out: Cmax, test GLSM): 1610 ng/mL
AUC(0-inf) ([1]; Cohort 1 fasted, BIC alone (N = 14), read-out: AUCinf, reference GLSM): 119000 ng·h/mL
concentration at 24 h ([1]; Cohort 1 fasted, BIC alone (N = 14), read-out: C24, reference GLSM): 1740 ng/mL
AUC(0-inf) ([1]; Cohort 2 fasted, B/F/TAF 2 h after aluminum/magnesium-containing antacid, N = 14, read-out: AUCinf, test GLSM): 61100 ng·h/mL
concentration at 24 h ([1]; Cohort 2 fasted, B/F/TAF 2 h after aluminum/magnesium-containing antacid, N = 14, read-out: C24, test GLSM): 900 ng/mL
Cmax ([1]; Cohort 2 fasted, B/F/TAF 2 h after aluminum/magnesium-containing antacid, N = 14, read-out: Cmax, test GLSM): 2430 ng/mL
AUC(0-inf) ([1]; Cohort 2 fasted, B/F/TAF 2 h before aluminum/magnesium-containing antacid, N = 14, read-out: AUCinf, test GLSM): 111000 ng·h/mL
concentration at 24 h ([1]; Cohort 2 fasted, B/F/TAF 2 h before aluminum/magnesium-containing antacid, N = 14, read-out: C24, test GLSM): 1650 ng/mL
AUC(0-inf) ([1]; Cohort 2 fasted, BIC alone (N = 14), read-out: AUCinf, reference GLSM): 128000 ng·h/mL
concentration at 24 h ([1]; Cohort 2 fasted, BIC alone (N = 14), read-out: C24, reference GLSM): 1930 ng/mL
Cmax ([1]; Cohort 2 fasted, BIC alone (N = 14), read-out: Cmax, reference GLSM): 5840 ng/mL
AUC(0-inf) ([1]; Cohort 3, BIC alone (N = 14), fasted, read-out: AUCinf, reference GLSM): 89900 ng·h/mL
concentration at 24 h ([1]; Cohort 3, BIC alone (N = 14), fasted, read-out: C24, reference GLSM): 1350 ng/mL
AUC(0-inf) ([1]; Cohort 3 fed, B/F/TAF with aluminum/magnesium-containing antacid simultaneous, N = 14, read-out: AUCinf, test GLSM): 47900 ng·h/mL
concentration at 24 h ([1]; Cohort 3 fed, B/F/TAF with aluminum/magnesium-containing antacid simultaneous, N = 14, read-out: C24, test GLSM): 750 ng/mL
Cmax ([1]; Cohort 3 fed, B/F/TAF with aluminum/magnesium-containing antacid simultaneous, N = 14, read-out: Cmax, test GLSM): 2340 ng/mL
AUC(0-inf) ([1]; Cohort 3 fed, B/F/TAF with calcium carbonate simultaneous, N = 14, read-out: AUCinf, test GLSM): 92900 ng·h/mL
concentration at 24 h ([1]; Cohort 3 fed, B/F/TAF with calcium carbonate simultaneous, N = 14, read-out: C24, test GLSM): 1430 ng/mL
Cmax ([1]; Cohort 3 fed, B/F/TAF with calcium carbonate simultaneous, N = 14, read-out: Cmax, test GLSM): 4070 ng/mL
AUC(0-inf) ([1]; Cohort 3 fed, B/F/TAF with ferrous fumarate simultaneous, N = 14, read-out: AUCinf, test GLSM): 75400 ng·h/mL
concentration at 24 h ([1]; Cohort 3 fed, B/F/TAF with ferrous fumarate simultaneous, N = 14, read-out: C24, test GLSM): 1200 ng/mL
Cmax ([1]; Cohort 3 fed, B/F/TAF with ferrous fumarate simultaneous, N = 14, read-out: Cmax, test GLSM): 3410 ng/mL
dissociation half-life [2]: ~ 163 hours
half-life for BIC (median T1/2) [3]: ~ 17 hours
